Results taken from ChEMBL document CHEMBL4177630, “Discovery and evaluation of Cav3.2-selective T-type calcium channel blockers” (Bioorg Med Chem Lett, 2017).
Values after ≈ are worked out from the molar mass of the structure shown.

Key:
[1] = Fraction unbound in Wistar rat plasma at 100 mg/kg, po measured after 1 hr; assay type: ADME, organism-based; details: in vivo
[2] = Drug level in Wistar rat brain at 100 mg/kg, po measured after 1 hr; assay type: ADME, organism-based; details: read-out: Drug uptake
[3] = Drug level in Wistar rat CSF at 100 mg/kg, po measured after 1 hr; assay type: ADME, organism-based, Cerebrospinal fluid; details: read-out: Drug uptake
[4] = Aqueous solubility of the compound at pH 7; assay type: physicochemical
[5] = Intrinsic clearance in rat liver microsomes; assay type: ADME, microsome; details: read-out: CLH
[6] = Plasma concentration in Wistar rat at 100 mg/kg, po measured after 1 hr; assay type: ADME, organism-based
[7] = Plasma concentration in Wistar rat at 10 mg/kg, po measured after 1 hr; assay type: ADME, organism-based
[8] = Drug level in Wistar rat CSF at 10 mg/kg, po measured after 1 hr; assay type: ADME, organism-based, Cerebrospinal fluid; details: read-out: Drug uptake
[9] = Fraction unbound in Wistar rat plasma at 10 mg/kg, po measured after 1 hr; assay type: ADME, organism-based; details: in vivo
[10] = Drug level in Wistar rat brain at 10 mg/kg, po measured after 1 hr; assay type: ADME, organism-based; details: read-out: Drug uptake

Row | Compound | Cp(f) [1] [nM] | concentration at 1 h [2] [nM] | concentration at 1 h [3] [nM] | solubility [4] [µg/mL] | microsomal CLint [5] [µL/min/mg] | concentration at 1 h [6] [nM] | concentration at 1 h [7] [nM] | concentration at 1 h [8] [nM] | Cp(f) [9] [nM] | concentration at 1 h [10] [nM]
1 | Cn1c(Cl)c2c(c1C(=O)NCc1ccncc1OCC(F)(F)F)CCC(C)(C)C2 | 5.2 | 12100 | 23 | 1 (≈ 2.33 µM) | 645 | 5210 |  |  |  | 
2 | CC(C)OCc1ccccc1CNC(=O)c1c2c(c(Cl)n1C)CC(C)(C)CC2 | < 0.4 | 436 | < 0.7 | < 1 | > 1250 | 397 |  |  |  | 
3 | Cn1c(Cl)c2c(c1C(=O)NCc1cccnc1OCC(F)(F)F)CCC(C)(C)C2 |  |  |  | < 1 | 420 |  | 353 | 6 | < 0.35 | 4720

Continued, values first:

Row | Cp(f) [1] [nM] | concentration at 1 h [2] [nM] | concentration at 1 h [3] [nM] | solubility [4] [µg/mL] | microsomal CLint [5] [µL/min/mg] | concentration at 1 h [6] [nM] | concentration at 1 h [7] [nM] | concentration at 1 h [8] [nM] | Cp(f) [9] [nM] | concentration at 1 h [10] [nM] | Compound
4 | 1.6 | 1020 | 17 | 7 (≈ 16.8 µM) | > 1250 | 530 |  |  |  |  | Cc1onc(CNC(=O)c2c3c(c(Cl)n2C)CC(C)(C)CC3)c1Cn1cccn1
5 |  |  |  | < 1 |  |  |  |  |  |  | Cn1c(Cl)c2c(c1C(=O)NCc1ncccc1N1CC[C@H](F)C1)CCC(C)(C)C2
